Measured values: US12329753B2, “Phosphodiesterase inhibitor treatment” (Cyrano Therapeutics, Inc., priority 2008, dated 2025)

Tested on: asthmatic patients
Assay: sGaw after inhaled dry powder in asthmatic patients, single blind study (Examples 5, 6)
Type: in vivo, human
Conditions: dry powder 1 mg inhaled
Method: (§1) To test this theory, asthmatic patients are enrolled in a dose escalating single blind study. On arrival to the clinic, subjects are allowed to rest for 20 minutes before baseline measurements of FEV1 (six recordings) and sGaw (five recordings) are made. Subjects receive a dry powder dispenser loaded with a dose of 2 mg theophylline or a dry powder carrier. […] After each inhalation, measurements of sGaw are made at 1, 3, 5, 10, 15, 20, 25, and 30 minutes.
On completion of the last recording, subjects inhale a 200 μg dose of salbutamol from a metered inhaler and a further measurement of sGaw is made after 15 minutes. Subjects are also monitored for coughing and are questioned about the taste of the drug.
as §1, with “Asthmatic patients” for “To test this theory, asthmatic patients”, “of 1” for “of 2”, “mg IBMX formulated as a dry powder” for “mg theophylline”
On completion of the last recording, subjects inhale a 200 μg dose of salbutamol from a metered inhaler and a further measurement of sGaw mad after 15 minutes. Subjects are also be monitored for coughing and are questioned about the taste of the drug.

Which “increase in sGaw versus 200 μg salbutamol” value does the source give for `CC(C)Cn1c(=O)n(C)c(=O)c2[nH]cnc21` [IBMX, 3-isobutyl-1-methylxanthine] here?
The value was “comparable with that produced by salbutamol”.

And the “time until sGaw baseline is reached” value?
Its value is “one and a half hours”.

What about the “sGaw above baseline measurement” value (after 30 minutes) of the same molecule?
Its value is 20%.
